Some test systems named below: LXFL 529 NSCLC; KM20L2 colon; NCI-H23 lung; EKVX NSCLC; SF-539 CNS; SNB-78 CNS; SF-268 CNS; MALME-3M melanoma.
Holding throughout (assay): inhibition of tumour cell growth, NCI panel, 48 h

TGI and GI50 data for ten molecules are collected here from PubChem BioAssay (NCI).

Values joined by “and” are separate entries in the source; they are usually repeats but may differ in a detail not shown here. Equal values may be shown once.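 How tested: cells in 96-well plates exposed to compound for 48 hours at five concentrations. GI50 is the concentration that inhibits growth by half. TGI is the concentration that stops growth completely.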

Turning to `COC(=O)c1nc(NN)[nH]c(=O)c1CCCCCc1c(C(=O)OC)[nH]c(NN)cc1=O`, the TGI in the experiment on LXFL 529 NSCLC, in the experiment with KM20L2 colon, in the experiment on NCI-H23 lung, in the experiment with EKVX NSCLC, in the experiment with SF-539 CNS and in the experiment with SNB-78 CNS was more than 100 µM in each case. Besides, the TGI in the experiment with SF-268 CNS and in the experiment with MALME-3M melanoma was more than 100 µM in each case.
For the molecule `C=C(C)C1CC2C(C)=C(OC(C)=O)C1n1c(=O)c3cc4ccccc4cc3c(=O)n12` (stereo not drawn), the TGI in the experiment on LXFL 529 NSCLC, in the experiment with KM20L2 colon, in the experiment with NCI-H23 lung, in the experiment on EKVX NSCLC, in the experiment with SF-539 CNS and with SNB-78 CNS was more than 100 µM in each case. Also, the TGI with SF-268 CNS and in the experiment with MALME-3M melanoma was more than 100 µM each time.
For the molecule `Cc1cc(O)c2c(c1)C(O)(c1ccc3c(c1O)C(=O)c1c(O)cc(C)cc1C3(O)C1OC(CO)C(O)C(O)C1O)c1cccc(O)c1C2=O` (stereo not drawn), the TGI was found to be 24.5 µM in the experiment on LXFL 529 NSCLC; 36 µM in the experiment on KM20L2 colon; 31.2 µM in the experiment with NCI-H23 lung; 28.2 µM in the experiment on EKVX NSCLC; 26.5 µM in the experiment on SF-539 CNS; 36.1 µM in the experiment with SNB-78 CNS. For the same molecule, the TGI in the experiment with SF-268 CNS was 36 µM; with MALME-3M melanoma, 25.5 µM.
Turning to `O=C(C(=O)c1ccc(Cc2ccc(C(=O)C(=O)c3ccccc3)cc2)cc1)c1ccccc1`, the TGI in the experiment on LXFL 529 NSCLC, in the experiment on KM20L2 colon, in the experiment with NCI-H23 lung, in the experiment with EKVX NSCLC, in the experiment on SF-539 CNS and in the experiment with SNB-78 CNS was more than 100 µM in each case. In addition, the TGI with SF-268 CNS and in the experiment on MALME-3M melanoma was more than 100 µM throughout.
As for `CSc1nc2c(c(O)c(C)c(=O)n2C2OC(COC(C)=O)C(OC(C)=O)C(OC(C)=O)C2OC(C)=O)c(=O)n1C` (stereo not drawn), the TGI with LXFL 529 NSCLC, with KM20L2 colon, in the experiment on NCI-H23 lung, in the experiment with EKVX NSCLC, with SF-539 CNS and with SNB-78 CNS was more than 100 µM throughout. The TGI in the experiment with SF-268 CNS and in the experiment on MALME-3M melanoma was more than 100 µM each time.
Take `O=C1c2ccccc2N2OC3(N4CCCC4)CCCC3C12c1ccccc1` (stereo not drawn): the TGI in the experiment on LXFL 529 NSCLC, in the experiment with KM20L2 colon, with NCI-H23 lung, in the experiment on EKVX NSCLC, with SF-539 CNS and with SNB-78 CNS was more than 100 µM throughout. Further, the TGI in the experiment with SF-268 CNS and in the experiment on MALME-3M melanoma was more than 100 µM throughout.
As to `COc1cc(C2c3cc4c(cc3[C@@H](Nc3ccc(N(C)C)cc3)[C@H]3COC(=O)C23)OCO4)cc(OC)c1O` (stereo partly drawn), the GI50 is 6.16 µM in the experiment with LXFL 529 NSCLC; 2.41 µM in the experiment on KM20L2 colon; 0.388 µM in the experiment on NCI-H23 lung; 2.37 µM with EKVX NSCLC; 0.572 µM in the experiment with SF-539 CNS; 8.2 µM in the experiment on SNB-78 CNS. The GI50 in the experiment with SF-268 CNS is 3.13 µM; in the experiment with MALME-3M melanoma it was 1.6 µM. Besides, the TGI was 11.1 µM and 20.6 µM in the experiment on LXFL 529 NSCLC; 3.02 µM and 10.7 µM in the experiment with KM20L2 colon; 0.717 µM and 3.18 µM with NCI-H23 lung; 9.57 µM and 9.64 µM in the experiment with EKVX NSCLC; 1.62 µM and 2.41 µM in the experiment with SF-539 CNS; 22.2 µM and 37.6 µM in the experiment on SNB-78 CNS. The TGI in the experiment with SF-268 CNS was 4.32 µM and 16.6 µM; with MALME-3M melanoma it was 12.1 µM and 15 µM.
As to `CC1(C)C(=O)C(O)=CC2C1=CCC1C2(C)C(=O)CC2(C)C(C(C)(O)C(=O)CC(O)C(C)(C)O)C(O)CC12C` (stereo not drawn), the TGI in the experiment on LXFL 529 NSCLC amounted to 17.4 µM; in the experiment on KM20L2 colon, 42.4 µM; in the experiment with NCI-H23 lung, 67.1 µM; in the experiment on EKVX NSCLC, 38.8 µM; in the experiment with SF-539 CNS, 5.98 µM; in the experiment on SNB-78 CNS, 25.9 µM. For the same molecule, the TGI with SF-268 CNS was found to be 9.76 µM; in the experiment on MALME-3M melanoma, 12.1 µM.
`Cc1nc2c(n1CC(C)(C)C)C(=O)c1ccccc1C2=O`: the TGI in the experiment on LXFL 529 NSCLC, in the experiment on KM20L2 colon, with NCI-H23 lung, in the experiment with EKVX NSCLC, with SF-539 CNS and in the experiment with SNB-78 CNS was more than 100 µM throughout. Also, the TGI in the experiment on SF-268 CNS and in the experiment with MALME-3M melanoma was more than 100 µM each time.
`CCc1ccccc1NC(=O)C(=O)C(C(=O)c1ccc(OC)cc1)c1ccc(OC)cc1` (stereo not drawn): the TGI in the experiment with LXFL 529 NSCLC, in the experiment on KM20L2 colon, with NCI-H23 lung, in the experiment with EKVX NSCLC, in the experiment with SF-539 CNS and in the experiment with SNB-78 CNS was more than 100 µM throughout. The TGI in the experiment on SF-268 CNS and with MALME-3M melanoma was more than 100 µM in each case.
